Consider 13 molecules from patent publication US10500288B2, “Cytotoxic HEXIM1 peptides and uses thereof” (AGENCY FOR SCIENCE, TECHNOLOGY AND RESEARCH, priority 2015, dated 2019).

Square brackets hold non-standard residues; d marks the D form. Ends that are not written are not given here. Peptide text beside a SMILES is read from it.

Data set [1] has as its system HEK293 cells. As to the kind of experiment: Cell viability (Cell-Titer Glo) in HEK293 cells. The class given is cell-based, human. To be noted: HEK293 normal cells; overnight, various concentrations. The protocol:
(§1) Human cell lines including HeLa, HEK293, MCF7, MDA-MB-231, CHO-K1, OPM-2, and WI-38 were obtained from American Type Culture Collection. AML2 and AML3 cells were purchased from Deutsche Sammlung von Mikroorganismen und Zellkulturen. HCT116 p53+/+ and p53−/− cells were kindly given by Dr. Bert Vogelstein. Primary human foreskin fibroblasts (HFF) were obtained from Dr. Mark Stinski. […] MDA-MB-231 and OPM-2 cells were cultured in RPMI-1640 (Gibco) containing 10% FBS and 1% penicillin/streptomycin. All cells were routinely maintained in a 37° C. incubator with 5% CO2.
(§2) Cells were plated in clear-bottomed white walled 96-well plates (Corning) and incubated overnight. Cells were treated with indicated peptides in 1% FBS-containing media for overnight or indicated timings at 37° C. Cell viability was measured with CellTiter-Glo reagent (Promega) according to the manufacturer's instructions. For cytotoxicity assay, cells were plated in black walled 96-well plates (Corning) to allow them to adhere overnight. Upon treatment with a pan-caspase inhibitor, z-VAD-Fmk ([…]) (Sigma) and subsequent treatment with LTV-tagged peptides, cytotoxicity induced was determined by CellTox cytotoxicity assay (Promega) 30 minutes after addition of peptides according to the manufacturer's instructions. Luminescence was determined using an Infinite 200 multiplate reader (Tecan).

Data set [2] deals with HeLa cells. The experiment in a line: Cell viability (Cell-Titer Glo) in HeLa cells. Type of data set: cell-based, human. To be noted: overnight, various concentrations. The protocol: as §1, §2
The subject of data set [3] is human foreskin fibroblasts (HFF). The experiment in a line: Cell viability (Cell-Titer Glo) in human foreskin fibroblasts. The class given is cell-based. To be noted: HFF normal fibroblasts; overnight, various concentrations. The protocol:
as §1, §2

Data set [4] has as its system HCT116 (p53 KO) cells. As to the kind of experiment: Time-lapse DIC live cell imaging, HCT116 (p53 KO). The class given is cell-based, human. To be noted: 30 μM, within minutes. The protocol: (§3) HCT116 (p53 WT) and HCT116 (p53 KO) cells were cultured on glass slides overnight, treated with vehicle control (0.5% dimethyl sulfoxide (DMSO)) or the indicated FGF peptides (30 μM). Time-lapse DIC imaging highlights dynamic morphological changes in treated HCT116 cells by spinning disk confocal microscopy. […] In contrast, FGF-BR peptide rapidly induces drastic changes to the cell morphology with rupturing of the plasma membrane accompanied with damages to the nuclear membrane and abnormalities to the nucleolus in both cell types. (B) cytotoxicity fluorescence plots of breast cancer cells MCF7 showing the effect of pan-caspase inhibitor z-VAD-Fmk on cells treated with LTV-tagged BR peptide. LTV is a breast cancer cell targeting peptide. MCF7 cells were incubated with or without z-VAD-Fmk (for 90 min) and then with indicated LTV-tagged peptides (30 μM) for thirty minutes at 37° C. Cells treated with LTV-X13 peptide (SEQ ID NO: 14) or vehicles, DMSO (0.5%), were used as negative controls. Treated cells were subjected to the cytotoxicity assay as described in Example 9—Materials and Methods. Data representative of at least three independent experiments performed in triplicate were shown with values expressed as mean±SD.
(§4) The mechanism of cell death induced by the HEXIM1 BR peptide was examined. […]

Data set [5] relates to HCT116 (p53 WT) cells. The experiment in a line: Time-lapse DIC live cell imaging, HCT116 (p53 WT). The class given is cell-based, human. To be noted: 30 μM, within minutes. The protocol: as §3, §4
In data set [6] the test system is undifferentiated 3T3 mouse fibroblast cells.
Protocol: (§7) 2.5×10^4 cells/ml of mouse fibroblast cells 3T3 were cultured in gelatin coated plates in Dulbecco's Modified Eagle Medium (DMEM) supplemented with 10% fetal bovine serum (FBS) and 1% penicillin/streptomycin (Gibco) to reach 100% confluent. The cells were then maintained at 100% confluency by supplementing with fresh media in a 37° C. incubator with 5% CO2 for 3 days. For induction, cells were then cultured in DMI Induction Media (which is DMEM supplemented with 10% fetal bovine serum, 1% penicillin/streptomycin, 0.1% 3-isobutyl-1-methylxanthine (sigma), 0.1% insulin (sigma) and 0.1% dexamethasone (sigma)) for 48 hours. The cells were then cultured in Insulin Induction Media (which is DMEM supplemented with 10% fetal bovine serum, 1% penicillin/streptomycin and 0.1% insulin). The insulin induction media was changed every 2 days until the cells were differentiated to adipose cells.
(§8) A D-form BR peptide with the sequence of [sequence] was tagged to a fat tissue targeting peptide of the sequence [sequence] (ATS peptide, SEQ ID NO: 39) to generate the ATS-BRD peptide of the sequence [sequence]([sequence])D (SEQ ID NO: 40). Both undifferentiated 3T3 cells and differentiated adipose cells were treated with the ATS-BRD peptide. ATS-tagged KLAD peptide was used as a positive control.
The subject of data set [7] is differentiated adipose cells (from 3T3).
Protocol: as §7, §8
Data set [8] relates to HCT116 (p53 WT) cells. The experiment in a line: Cell viability (Cell-Titer Glo) in HCT116 (p53 WT). Type of data set: cell-based, human. To be noted: overnight, various concentrations. The protocol:
as §1, §2

The test system of data set [9] is HCT116 (p53 KO) cells. The experiment in a line: Cell viability (Cell-Titer Glo) in HCT116 (p53 KO). The class given is cell-based, human. To be noted: overnight, various concentrations. The protocol: as §1, §2
Data set [10] addresses T1, NPM (Homo sapiens, UniProt P06748).
T1 construct: FGF-tagged BR peptide alters the sub-cellular localization and protein level of endogenous NPM; endogenous in cells; host or cells: HCT116 (p53 WT) and HCT116 (p53 KO)
The experiment in a line: Immunofluorescence of NPM sub-cellular localization, HCT116 (p53 KO). Type of data set: cell-based. To be noted: 30 μM. The protocol: (§5) (A) representative immunofluorescence images showing the sub-cellular localization of α-NPM (bar represents 10 μm). HCT116 (p53 WT) and HCT116 (p53KO) cells were cultured on glass slides overnight, treated with FGF-X13 or FGF-BR (30 μM). Cells treated with FGF-X13 peptide or vehicle, DMSO (0.5%), was used as controls. Treated cells were immunostained with an anti-NPM antibody and analyzed by laser scanning confocal microscopy (Zeiss). Nuclei were visualized by staining with 4′,6-diamidino-2-phenylindole (DAPI).
(§6) For staining with anti-NPM, cultured cells were fixed in 10% neutral buffered formalin (Sigma) for 10 min, and then in methanol for 10 min, washed in PBS and incubated with blocking buffer (PBS containing 0.5% bovine serum albumin) for 1 hour prior to incubation with a mouse anti-NPM antibody (Invitrogen) in blocking buffer for overnight at 4° C. Cells were then incubated with Alexa Fluor 488-conjugated secondary antibody (Jackson Immuno Research Laboratories) for 1 hour, washed three times with PBS and counterstained with 4′,6-diamidino-2-phenylindole (DAPI)-containing mounting solution (Vectashield). Stained cells were examined with a LSM 510 confocal microscope using a 63× objective lens (Zeiss).

Data set [11] addresses T1, NPM. As to the kind of experiment: Immunofluorescence of NPM sub-cellular localization, HCT116 (p53 WT). To be noted: 30 μM. The class given is cell-based. The protocol: as §5, §6
The subject of data set [12] is MDA-MB-231 cells. As to the kind of experiment: Cell viability (Cell-Titer Glo) in MDA-MB-231 breast cancer cells. Type of data set: cell-based, human. To be noted: overnight, different concentrations. The protocol:
as §1, §2

In data set [13] the test system is MCF7 cells. The experiment in a line: Cell viability (Cell-Titer Glo) in MCF7 breast cancer cells. The class given is cell-based, human. To be noted: overnight, different concentrations. The protocol: as §1, §2

T1 sequence (P06748 whole entry): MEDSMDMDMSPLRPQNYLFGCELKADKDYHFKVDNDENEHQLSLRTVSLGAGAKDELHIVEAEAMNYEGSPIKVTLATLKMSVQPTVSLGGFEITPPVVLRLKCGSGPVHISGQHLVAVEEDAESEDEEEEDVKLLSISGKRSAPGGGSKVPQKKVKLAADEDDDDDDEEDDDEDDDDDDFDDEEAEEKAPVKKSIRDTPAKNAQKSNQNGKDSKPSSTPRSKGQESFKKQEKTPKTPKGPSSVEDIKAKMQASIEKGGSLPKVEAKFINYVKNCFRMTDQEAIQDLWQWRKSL

As for `CC(C)C[C@H](NC(=O)[C@H](C)NC(=O)[C@H](CC(C)C)NC(=O)[C@H](CC(C)C)NC(=O)[C@@H](NC(=O)[C@H](C)NC(=O)[C@@H]1CCCN1C(=O)[C@H](CC(C)C)NC(=O)[C@H](CC(C)C)NC(=O)[C@H](C)NC(=O)[C@@H](NC(=O)[C@H](C)NC(=O)[C@H](C)N)C(C)C)C(C)C)C(=O)N[C@@H](CC(C)C)C(=O)N[C@@H](C)C(=O)N1CCC[C@H]1C(=O)N[C@@H](CCC(N)=O)C(=O)N[C@@H](CC(C)C)C(=O)NCC(=O)N[C@@H](CCCCN)C(=O)N[C@@H](CCCCN)C(=O)N[C@@H](CCCCN)C(=O)N[C@@H](Cc1c[nH]cn1)C(=O)N[C@@H](CCCNC(=N)N)C(=O)N[C@@H](CCCNC(=N)N)C(=O)N[C@@H](CCCNC(=N)N)C(=O)N1CCC[C@H]1C(=O)N[C@@H](CO)C(=O)N[C@@H](CCCCN)C(=O)N[C@@H](CCCCN)C(=O)N[C@@H](CCCCN)C(=O)N[C@@H](CCCNC(=N)N)C(=O)N[C@@H](Cc1c[nH]cn1)C(=O)N[C@@H](Cc1c[nH]c2ccccc12)C(=O)O` [FGF-BR] (H-AAVALLPAVLLALLAPQLGKKKHRRRPSKKKRHW-OH), the “cytotoxicity (cell viability)” value is “Comparable cytotoxicity” in data set [1], “Cytotoxicity was also observed” in data set [2] and “Comparable cytotoxicity” in [3].

With `CC(C)C[C@H](NC(=O)[C@H](CCCCN)NC(=O)CNC(=O)[C@H](CS)NC(=O)CNC(=O)[C@H](Cc1ccc(O)cc1)NC(=O)[C@H](Cc1c[nH]c2ccccc12)NC(=O)[C@@H]1CCCN1C(=O)[C@H](CO)NC(=O)[C@@H](NC(=O)[C@@H](NC(=O)[C@@H](N)CC(C)C)[C@@H](C)O)C(C)C)C(=O)N[C@@H](C)C(=O)N[C@@H](CCCCN)C(=O)N[C@@H](CC(C)C)C(=O)N[C@@H](C)C(=O)N[C@@H](CCCCN)C(=O)N[C@@H](CCCCN)C(=O)N[C@@H](CC(C)C)C(=O)N[C@@H](C)C(=O)N[C@@H](CCCCN)C(=O)N[C@@H](CC(C)C)C(=O)N[C@@H](C)C(=O)N[C@@H](CCCCN)C(=O)O` [LTV-KLA, reference compound] (H-LTVSPWYGCGKLAKLAKKLAKLAK-OH), the “cytotoxicity (cell viability)” value in data set [3] was “non-specific killing”.

As to “AAVALLPAVLLALLAP [FGF, cell membrane-translocating peptide derived from Kaposi fibroblast growth factor]”, the morphological changes entry in data set [4] and in data set [5] was “No effects were detected” in each case.

With “CKGGRAKDCGG(QLGKKKHRRRPSKKKRHW)D (CKGGRAKDCGG[dQ][dL]G[dK][dK][dK][dH][dR][dR][dR][dP][dS][dK][dK][dK][dR][dH][dW]; cysteine pairing not given here) [ATS-BRD]”, the entries for the “cytotoxic effect (cell viability)” value in data set [6] and in [7] were “no cytotoxic effect” and “significant cytotoxic effect”, respectively.

For “FGF-BR-ILAA: FGF-fused BR peptide with KHRR motif mutated to ILAA (AAVALLPAVLLALLAPQLGKKILAARPSKKKRHW)”, the “cell death / cell viability” value in data set [8] and in [9] was “still maintained its killing ability” in each case.

As to “FGF-BR-RRR12: FGF-fused BR peptide with all six HDM2 ubiquitinating lysine residues mutated to arginine (AAVALLPAVLLALLAPQLGRRRHRRRPSRRRRHW)”, the “cell death / cell viability” value in [8] and in data set [9] was “stronger cell toxicity when compared to the wild-type FGF-BR peptide” throughout.

Consider “FGF-X13: negative control peptide, FGF-tagged X13 (AAVALLPAVLLALLAPMPFSTGKRIMLGE) [reference compound]”, for which the “cell death / cell viability” value in data set [8] and in [9] was “no effects” in each case. In addition, the “sub-cellular localization of NPM” value in [10] and in [11] was “Normal nucleolar localization of NPM” throughout.

As for “KLA (KLAKLAKKLAKLAK) [reference compound]”, the “effect on cell viability” value in data set [12] is recorded as “non-specific killing”.

Turning to “LTV-BR-RRR12: breast cancer targeting peptide LTV fused to BR-RRR12 (LTVSPWYGCGQLGRRRHRRRPSRRRRHW)”, the “effect on cell viability” value in data set [13] and in data set [12] was “anti-proliferation effects” throughout.

On to “LTV-X13: LTV-tagged X13 negative control peptide (LTVSPWYGCGMPFSTGKRIMLGE) [reference compound]”, for which the “effect on cell viability” value in [13] and in [12] was “no effects were detected” each time.

In the case of “QLGKKKHRRRPSKKKRHW (listed as Homo sapiens) [BR, untagged HEXIM1 basic region peptide]”, the “effect on cell viability” value in data set [13] is given as “no effect on cell viability”; in [12] it was “remained highly viable”.

Take “QLGRRRHRRRPSRRRRHW (QLGRRRHRRRPSKKKRHW) [BR-RRR12, BR mutant in which all six HDM2 ubiquitinating lysine residues were mutated to arginine]”: the “effect on cell viability” value in [13] is listed as “no effect on cell viability”; in data set [12] it was “remained highly viable”.

As to “X13: untagged negative control peptide (MPFSTGKRIMLGE) [reference compound]”, the “effect on cell viability” value in [13] and in [12] was “no effect on cell viability” in each case.
